Consider 6 compounds from ChEMBL document CHEMBL1152306, “Characterization of novel furan compounds on the basis of their radical scavenging activity and cytoprotective effects against glutamate- and lipopolysaccharide-induced insults” (Bioorg Med Chem, 2008).

The source made the active and inactive calls. No cut-off for these calls is given here.

Data set [1] deals with Cerebral cortex neuron. Description: Neuroprotective activity against glutamate-induced neuronal cell death in Sprague-Dawley rat primary cortical neuron at 0.25 uM pretreated for 24 hrs prior to glutamate challenge measured after 24 hrs by MTT assay. The format is functional, cell-based. (In general: Tetrazolium assays rely on reduction of a dye to a coloured formazan, in cell work by metabolically active cells.)

The test system of data set [2] is Cerebral cortex neuron. Description: Neuroprotective activity against glutamate-induced neuronal cell death in Sprague-Dawley rat primary cortical neuron at 0.25 uM administered simultaneously with glutamate after 24 hrs by MTT assay. The format is functional, cell-based.
The next data set has as its system THP-1. Description: Cytoprotective activity against LPS-induced cell death in human THP1 cells at 10 uM pretreated for 24 hrs prior to LPS challenge measured after 24 hrs by MTT assay. The format is functional, cell-based.
For data set [3], the target named is Prostaglandin G/H synthase 1 (Homo sapiens, UniProt P23219). Description: Inhibition of COX1.
Sequence of Prostaglandin G/H synthase 1 (P23219 whole entry): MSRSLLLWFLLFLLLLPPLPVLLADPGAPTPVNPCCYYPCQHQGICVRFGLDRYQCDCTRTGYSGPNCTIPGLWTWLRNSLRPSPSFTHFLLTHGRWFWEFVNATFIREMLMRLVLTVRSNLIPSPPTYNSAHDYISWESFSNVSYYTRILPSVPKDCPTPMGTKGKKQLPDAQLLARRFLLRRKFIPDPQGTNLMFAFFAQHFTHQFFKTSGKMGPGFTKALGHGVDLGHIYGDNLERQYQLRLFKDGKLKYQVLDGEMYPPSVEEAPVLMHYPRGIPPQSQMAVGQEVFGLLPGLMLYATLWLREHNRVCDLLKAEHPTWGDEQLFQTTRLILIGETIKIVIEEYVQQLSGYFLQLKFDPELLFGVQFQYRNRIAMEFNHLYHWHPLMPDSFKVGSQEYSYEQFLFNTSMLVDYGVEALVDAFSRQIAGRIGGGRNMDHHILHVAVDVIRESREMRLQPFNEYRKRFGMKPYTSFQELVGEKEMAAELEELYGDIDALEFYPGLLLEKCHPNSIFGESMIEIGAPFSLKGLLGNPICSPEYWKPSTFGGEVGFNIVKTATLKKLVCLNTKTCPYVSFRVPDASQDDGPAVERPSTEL
For data set [4], the target named is T1, Prostaglandin G/H synthase 2 (Homo sapiens, UniProt P35354).
T1 sequence (P35354 whole entry): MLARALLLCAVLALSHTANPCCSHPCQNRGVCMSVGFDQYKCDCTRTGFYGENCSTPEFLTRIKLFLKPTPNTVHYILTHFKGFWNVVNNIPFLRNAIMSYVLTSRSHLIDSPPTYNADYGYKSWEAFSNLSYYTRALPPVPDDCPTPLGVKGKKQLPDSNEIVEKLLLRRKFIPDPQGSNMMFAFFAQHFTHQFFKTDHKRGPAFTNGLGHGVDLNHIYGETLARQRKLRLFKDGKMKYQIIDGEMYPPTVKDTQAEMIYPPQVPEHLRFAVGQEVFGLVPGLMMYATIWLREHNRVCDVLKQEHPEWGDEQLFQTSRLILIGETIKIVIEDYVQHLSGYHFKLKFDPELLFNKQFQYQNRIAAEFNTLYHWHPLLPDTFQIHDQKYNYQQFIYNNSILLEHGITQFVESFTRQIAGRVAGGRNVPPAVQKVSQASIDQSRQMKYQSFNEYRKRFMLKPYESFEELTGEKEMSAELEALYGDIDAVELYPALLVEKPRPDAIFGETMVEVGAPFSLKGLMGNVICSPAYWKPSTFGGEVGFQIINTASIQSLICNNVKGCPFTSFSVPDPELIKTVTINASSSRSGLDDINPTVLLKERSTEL
Description: Inhibition of COX2.

Data set [5] has as its target T2, Polyunsaturated fatty acid 5-lipoxygenase (Homo sapiens, UniProt P09917).
T2 sequence (P09917 whole entry): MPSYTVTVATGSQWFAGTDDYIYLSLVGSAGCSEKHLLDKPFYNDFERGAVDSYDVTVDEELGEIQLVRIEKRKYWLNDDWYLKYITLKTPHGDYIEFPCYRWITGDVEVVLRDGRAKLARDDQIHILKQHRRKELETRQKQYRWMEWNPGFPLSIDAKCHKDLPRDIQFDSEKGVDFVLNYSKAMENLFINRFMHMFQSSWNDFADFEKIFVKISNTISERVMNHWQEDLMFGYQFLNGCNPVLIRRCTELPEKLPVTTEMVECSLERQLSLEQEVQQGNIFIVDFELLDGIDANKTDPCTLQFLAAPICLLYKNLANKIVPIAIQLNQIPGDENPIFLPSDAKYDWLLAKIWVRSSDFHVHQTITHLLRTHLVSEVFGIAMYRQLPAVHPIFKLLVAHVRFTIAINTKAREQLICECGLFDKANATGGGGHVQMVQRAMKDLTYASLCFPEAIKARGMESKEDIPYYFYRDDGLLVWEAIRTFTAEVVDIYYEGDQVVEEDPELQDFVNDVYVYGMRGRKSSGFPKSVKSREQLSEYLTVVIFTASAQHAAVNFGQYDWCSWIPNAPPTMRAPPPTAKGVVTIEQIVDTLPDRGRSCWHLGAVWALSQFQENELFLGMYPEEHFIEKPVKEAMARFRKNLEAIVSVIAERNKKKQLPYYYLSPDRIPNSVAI
Description: Inhibition of 5LOX.

A short description of data set [6]: Radical scavenging activity assessed as suppression of MeO-AMVN-induced beta-carotene oxidation in benzene solution. The format is physicochemical.
The nature of data set [7]: Radical scavenging activity assessed as rate constant. Type of data set: physicochemical.
Data set [8] is described as follows: Radical scavenging activity assessed as relative reactivity against beta-carotene in benzene solution. The format is physicochemical.
A short description of data set [9]: Radical scavenging activity assessed as relative reactivity against beta-carotene in 2,2-azobis[2-(2-imidazolin-2-yl)-propane]dihydrochloride solution. Type of data set: physicochemical.
The nature of data set [10]: Radical scavenging activity assessed as relative reactivity against beta-carotene in MeO-AMVN solution. Type of data set: physicochemical.
Data set [11] relates to PC-12. Description: Cytoprotective activity against 13(S)-HpODE-induced cell death in rat PC12 cells pretreated for 24 hrs prior to 13(S)-HpODE challenge measured after 24 hrs by MTT assay. Type of data set: functional, cell-based.
Data set [12] deals with Cerebral cortex neuron. Description: Neuroprotective activity against glutamate-induced neuronal cell death in Sprague-Dawley rat primary cortical neuron at 1 uM pretreated for 24 hrs prior to glutamate challenge measured after 24 hrs by MTT assay. The format is functional, cell-based.
Data set [13] has as its system Cerebral cortex neuron. Description: Neuroprotective activity against glutamate-induced neuronal cell death in Sprague-Dawley rat primary cortical neuron at 1 uM administered simultaneously with glutamate after 24 hrs by MTT assay. Type of data set: functional, cell-based.
Data set [14] has as its system PC-12. Description: Cytoprotective activity against LPS-induced cell death in rat PC12 cells at 1 to 50 uM pretreated for 24 hrs prior to LPS challenge measured after 24 hrs by MTT assay. The format is functional, cell-based.
For data set [15], the system named is Cerebral cortex neuron. Description: Neuroprotective activity against glutamate-induced neuronal cell death in Sprague-Dawley rat primary cortical neuron at 2.5 uM pretreated for 24 hrs prior to glutamate challenge measured after 24 hrs by MTT assay. The format is functional, cell-based.
Data set [16] has as its system PC-12. Description: Cytoprotective activity against 6-OHDA-induced cell death in rat PC12 cells at 25 uM pretreated for 24 hrs prior to 6-OHDA challenge measured after 24 hrs by MTT assay. The format is functional, cell-based.
Data set [17] has as its system PC-12. Description: Cytoprotective activity against 6-OHDA-induced cell death in rat PC12 cells at 50 uM pretreated for 24 hrs prior to 6-OHDA challenge measured after 24 hrs by MTT assay. The format is functional, cell-based.

What is called IC50 is the concentration at which inhibition is half-maximal. A high value points to lower potency.

`CC(C)=CCC/C(C)=C/CC/C(C)=C/CC[C@]1(C)CCc2c(C)c(O)c(C)c(C)c2O1`: the outcome in the data set with Cerebral cortex neuron [1] and with Cerebral cortex neuron [2] was Active.
Turning to `CCCCCCc1ccc(-c2ccc(O)c(OC)c2)o1`, the outcome in the data set on THP-1, with PC-12 [11], in the data set with Cerebral cortex neuron [12], in the data set with Cerebral cortex neuron [13] and with PC-12 [14] was Active. For the same compound, the IC50 is 62 µM in data set [3], 8.4 µM in [4] and 2.6 µM in data set [5]. The Activity result in [6] is given as “Dose-dependent effect”; in data set [8], 0.62; in data set [9], 1; in data set [10], 1.3. Besides, the K in data set [7] came to 3 ×10⁴ /M/s.
With `CCCCC[C@H](O)CC(=O)CCc1ccc(O)c(OC)c1` [GINGEROL], the half-inhibitory concentration (IC50) in [3] amounted to 129 µM; in [4], 125 µM.
For the compound `Cc1c(C)c2c(c(C)c1O)CC[C@@](C)(CCC[C@H](C)CCC[C@H](C)CCCC(C)C)O2` [ALPHA-TOCOPHEROL], in data set [7], the K is 1 ×10⁶ /M/s. For the same compound, in the data set with Cerebral cortex neuron [15], the result was Active.
The compound `CCCCC/C=C/C(=O)CCc1ccc(O)c(OC)c1` [SHOGAOL] gave a concentration for half-maximal inhibition (IC50) in data set [5] of 7.4 µM.
Consider `CCc1ccc(-c2ccc(O)c(OC)c2)o1`, for which the result with THP-1, in the data set on PC-12 [16], in the data set with PC-12 [17], with PC-12 [11] and in the data set on PC-12 [14] was Active. The IC50 in data set [3] is 13 µM; in data set [4], 9.4 µM; in data set [5] it was 0.53 µM. Also, the Activity entry in data set [6] was “Dose-dependent effect”; in data set [8], 0.58; in data set [9] it was 0.69; in data set [10], 1.1. For the same compound, in data set [7], the K worked out at 2 ×10⁴ /M/s.
